Experimental data from patent US4292241A, “Antibiotic PA-31088-IV and production thereof” (Shionogi & Co., Ltd., priority 1979, dated 1981).

Key:
S. marcescens 39 = assay: Synergistic activity with other β-lactam antibiotics (MIC); assay type: cell-based
Excerpt: (§1) (c) Synergistic activity with other β-lactam antibiotics

P. vulgaris 50 = assay: as above; assay type: cell-based
Excerpt: as §1

S. aureus 2132 = assay: as above; assay type: cell-based
[1] = tested on: Serratia marcescens ATCC 13880; assay: Antibacterial spectrum (MIC); assay type: cell-based; conditions: inoculum one loopful of 10^6 cfu/ml
Excerpt: (§2) (a) Antibacterial spectrum | Inoculum size = one loopful of 10^6 cfu/ml

Proteus mirabilis PR-4 = assay: Antibacterial spectrum (MIC); assay type: cell-based; conditions: inoculum one loopful of 10^6 cfu/ml
Excerpt: as §2

Enterobactor cloacae 233 = assay: Antibacterial spectrum (MIC); assay type: cell-based; conditions: inoculum one loopful of 10^6 cfu/ml
Excerpt: as §2

[2] = tested on: Streptococcus pneumoniae I; assay: Antibacterial spectrum (MIC); assay type: cell-based; conditions: inoculum one loopful of 10^6 cfu/ml
Excerpt: as §2

[3] = tested on: Staphylococcus aureus 209P JC-1; assay: Antibacterial spectrum (MIC); assay type: cell-based; conditions: inoculum one loopful of 10^6 cfu/ml
Excerpt: as §2

[4] = tested on: Escherichia coli NIHJ JC-2; assay: Antibacterial spectrum (MIC); assay type: cell-based; conditions: inoculum one loopful of 10^6 cfu/ml
Excerpt: as §2

Klebsiella sp. 363 (R) = assay: Antibacterial spectrum (MIC); assay type: cell-based; conditions: inoculum one loopful of 10^6 cfu/ml
Excerpt: as §2

[5] = tested on: Klebsiella pneumoniae SRL-1; assay: Antibacterial spectrum (MIC); assay type: cell-based; conditions: inoculum one loopful of 10^6 cfu/ml
Excerpt: as §2

[6] = tested on: Pseudomonas aeruginosa ATCC 25619; assay: Antibacterial spectrum (MIC); assay type: cell-based; conditions: inoculum one loopful of 10^6 cfu/ml
Excerpt: as §2

[7] = tested on: lactamase of penicillinase type (Klebsiella sp. 363); assay: β-Lactamase inhibitory activity; assay type: biochemical; conditions: β-lactamase producing bacteria Klebsiella sp. 363, penicillinase type
Excerpt: (§3) (b) β-Lactamase inhibitory activity
**produces lactamase of penicillinase type

[8] = biological target: lactamase of cephalosporinase type (Enterobactor cloacae 92) (Enterobacter cloacae, UniProt P05364); assay: β-Lactamase inhibitory activity; assay type: biochemical; conditions: β-lactamase producing bacteria Enterobactor cloacae 92, cephalosporinase type
lactamase of cephalosporinase type (Enterobactor cloacae 92), sequence (P05364 21-381): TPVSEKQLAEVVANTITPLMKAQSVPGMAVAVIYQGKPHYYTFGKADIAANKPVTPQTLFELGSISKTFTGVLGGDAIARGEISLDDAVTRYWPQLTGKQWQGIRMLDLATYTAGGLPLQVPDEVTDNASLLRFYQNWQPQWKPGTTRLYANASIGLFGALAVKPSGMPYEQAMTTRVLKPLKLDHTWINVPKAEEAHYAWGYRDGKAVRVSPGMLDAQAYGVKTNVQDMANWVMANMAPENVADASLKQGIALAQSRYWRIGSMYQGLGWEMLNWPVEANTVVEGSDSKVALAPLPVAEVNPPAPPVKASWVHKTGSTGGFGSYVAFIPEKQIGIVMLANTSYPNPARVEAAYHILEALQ
Excerpt: as §3
*produces lactamase of cephalosporinase type

SMILES: CC1(C)S[C@@H]2[C@H](NC(=O)[C@H](N)c3ccccc3)C(=O)N2[C@H]1C(=O)O [Ampicillin, ampicillin]
- MIC of Ampicillin (S. marcescens 39; PA-31088-IV 0 μg/ml): > 200 µg/mL
- MIC of Ampicillin (S. marcescens 39; with PA-31088-IV 2.5 μg/ml): 3.1 µg/mL
- MIC of Ampicillin (S. marcescens 39; with PA-31088-IV 10 μg/ml): 0.1 µg/mL
- MIC of Ampicillin (P. vulgaris 50; PA-31088-IV 0 μg/ml): > 200 µg/mL
- MIC of Ampicillin (P. vulgaris 50; with PA-31088-IV 2.5 μg/ml): 6.3 µg/mL
- MIC of Ampicillin (P. vulgaris 50; with PA-31088-IV 10 μg/ml): 1.6 µg/mL

SMILES: Cc1nnc(SCC2=C(C(=O)O)N3C(=O)[C@@H](NC(=O)Cn4cnnn4)[C@H]3SC2)s1 [Cefazolin, cefazolin]
- MIC of Cefazolin (S. aureus 2132; PA-31088-IV 0 μg/ml): 6.3 µg/mL
- MIC of Cefazolin (S. aureus 2132; with PA-31088-IV 2.5 μg/ml): 0.8 µg/mL
- MIC of Cefazolin (S. aureus 2132; with PA-31088-IV 10 μg/ml): 0.4 µg/mL
- MIC of Cefazolin (S. marcescens 39; PA-31088-IV 0 μg/ml): > 200 µg/mL
- MIC of Cefazolin (S. marcescens 39; with PA-31088-IV 2.5 μg/ml): 6.3 µg/mL
- MIC of Cefazolin (S. marcescens 39; with PA-31088-IV 10 μg/ml): 0.4 µg/mL
- MIC of Cefazolin (P. vulgaris 50; PA-31088-IV 0 μg/ml): > 200 µg/mL
- MIC of Cefazolin (P. vulgaris 50; with PA-31088-IV 2.5 μg/ml): 6.3 µg/mL
- MIC of Cefazolin (P. vulgaris 50; with PA-31088-IV 10 μg/ml): 3.1 µg/mL

SMILES: CC(=O)NC=CS(=O)(=O)C1=C(C(=O)O)N2C(=O)C(=C(C)CO)C2C1 (centres unmarked) [PA-31088-IV, 3-[(2-acetamidoethylene)sulfonyl]-6-(2-hydroxy-1-methylethylidene)-7-oxo-1-azabicyclo[3.2.0]hept-2-ene-2-carboxylic acid]
- Minimum Inhibitory Concentration [1]: 12.5 µg/mL
- Minimum Inhibitory Concentration (Proteus mirabilis PR-4): 6.25 µg/mL
- Minimum Inhibitory Concentration (Enterobactor cloacae 233): 3.13 µg/mL
- Minimum Inhibitory Concentration [2]: 0.39 µg/mL
- Minimum Inhibitory Concentration [3]: 3.13 µg/mL
- Minimum Inhibitory Concentration [4]: 3.13 µg/mL
- Minimum Inhibitory Concentration (Klebsiella sp. 363 (R)): 3.13 µg/mL
- Minimum Inhibitory Concentration [5]: 1.56 µg/mL
- Minimum Inhibitory Concentration [6]: 50 µg/mL
- MIC of PA-31088-IV (S. aureus 2132; PA-31088-IV alone): > 10 µg/mL
- MIC of PA-31088-IV (S. marcescens 39; PA-31088-IV alone): > 10 µg/mL
- MIC of PA-31088-IV (P. vulgaris 50; PA-31088-IV alone): > 10 µg/mL
- Minimum Inhibitory Concentration (β-lactamase inhibitory activity) [7]: 0.06 µg/mL
- Minimum Inhibitory Concentration (β-lactamase inhibitory activity) [8]: 0.98 µg/mL
